According to ChEMBL document CHEMBL1123556, “Synthesis of antimicrobial agents. 1. Syntheses and antibacterial activities of 7-(azole substituted)quinolones” (J Med Chem, 1987):
Converted amounts (≈) assume the structure as drawn.

Tests used:
[1] = tested on: Staphylococcus epidermidis; test: microbe, parasite or virus in culture; type: functional
[2] = tested on: Bacillus subtilis; test: In vitro antibacterial activity against Bacillus subtilis ATCC 6633; type: functional
[3] = tested on: Salmonella paratyphi; test: microbe, parasite or virus in culture; type: functional, Salmonella enterica subsp. enterica serovar Paratyphi A; conditions: Salmonella enterica
[4] = tested on: Escherichia coli; test: In vitro antibacterial activity against Escherichia coli NIHJ JC-2; type: functional
[5] = tested on: Pseudomonas aeruginosa; test: In vitro antibacterial activity against Pseudomonas aeruginosa IFO 3445; type: functional
[6] = tested on: Proteus vulgaris; test: In vitro antibacterial activity against Proteus vulgaris HX-19; type: functional
[7] = tested on: Staphylococcus aureus; test: In vitro antibacterial activity against Staphylococcus aureus FDA 209P JC-1; type: functional
[8] = tested on: Klebsiella pneumoniae; test: microbe, parasite or virus in culture; type: functional
[9] = tested on: Staphylococcus epidermidis; test: In vitro antibacterial activity against Staphylococcus epidermidis IAM 1576; type: functional
[10] = tested on: Salmonella paratyphi; test: In vitro antibacterial activity against Salmonella paratyphi 1015; type: functional, Salmonella enterica subsp. enterica serovar Paratyphi A; conditions: Salmonella enterica
[11] = tested on: Klebsiella pneumoniae; test: In vitro antibacterial activity against Klebsiella pneumoniae PCI-602; type: functional
[12] = Total serum concentrations at 0 to 4 hours interval was determined by 50 mg / kg oral administration; type: ADME, cell-free
[13] = Concentrations in serum after 120 minutes at 50 mg / kg oral administration; type: ADME, cell-free
[14] = tested on: Mus musculus; test: In vivo antibacterial activity against Escherichia coli (KC-14) was determined for the compound administered perorally; Value ranges from […]-[…]; type: functional; conditions: po
[15] = Concentrations in serum after 60 minutes at 50 mg / kg oral administration; type: ADME, cell-free
[16] = Concentrations in serum after 240 minutes at 50 mg / kg oral administration; type: ADME
[17] = Concentrations in serum after 30 minutes at 50 mg / kg oral administration; type: ADME, cell-free
[18] = In vivo acute toxicity against Escherichia coli (KC-14) was determined for the compound administered intravenously; type: organism-based; conditions: mouse, iv
[19] = In vivo acute toxicity against Escherichia coli (KC-14) was determined for the compound administered perorally; type: organism-based; conditions: mouse, po
[20] = tested on: Mus musculus; test: In vivo antibacterial activity against Escherichia coli (KC-14) was determined for the compound administered perorally; type: functional; conditions: po
[21] = In vivo acute toxicity against Escherichia coli (KC-14) was determined for the compound administered orally; type: organism-based; conditions: mouse, po
[22] = tested on: Mus musculus; test: In vivo antibacterial activity against Escherichia coli (KC-14) was determined for the compound administered perorally; Value ranges from 4.8-9.4; type: functional; conditions: po

Row | SMILES | MIC [1] | MIC [2] | MIC [3] | MIC [4] | MIC [5] | MIC [6] | MIC [7] | MIC [8] | also measured
1 | CCn1cc(C(=O)O)c(=O)c2cc(F)c(-n3cccn3)cc21 | 25 µg/mL (≈ 83 µM) | 0.78 µg/mL (≈ 2.59 µM) | 0.39 µg/mL (≈ 1.29 µM) | 12.5 µg/mL (≈ 41.5 µM) | 25 µg/mL (≈ 83 µM) | 0.39 µg/mL (≈ 1.29 µM) | 6.25 µg/mL (≈ 20.7 µM) | 0.78 µg/mL (≈ 2.59 µM) | 
2 | CCn1cc(C(=O)O)c(=O)c2cc(F)c(-n3cnc4c3CCCC4)c(F)c21 | 6.25 µg/mL (≈ 16.7 µM) | 0.39 µg/mL (≈ 1.04 µM) | 6.25 µg/mL (≈ 16.7 µM) | 12.5 µg/mL (≈ 33.5 µM) | 25 µg/mL (≈ 67 µM) | 3.13 µg/mL (≈ 8.38 µM) | 1.56 µg/mL (≈ 4.18 µM) | 1.56 µg/mL (≈ 4.18 µM) | 
3 | CCn1cc(C(=O)O)c(=O)c2cc(F)c(-n3cnc(C=O)c3)c(F)c21 |  | 0.78 µg/mL (≈ 2.25 µM) |  | 0.78 µg/mL (≈ 2.25 µM) | 25 µg/mL (≈ 72 µM) | 0.2 µg/mL (≈ 0.576 µM) | 3.13 µg/mL (≈ 9.01 µM) |  | MIC [9]: 25 µg/mL (≈ 72 µM); MIC [10]: 0.2 µg/mL (≈ 0.576 µM); MIC [11]: 0.2 µg/mL (≈ 0.576 µM)
4 | CCn1cc(C(=O)O)c(=O)c2cc(F)c(-n3cccc3)c(F)c21 | 1.56 µg/mL (≈ 4.9 µM) | 0.05 µg/mL (≈ 0.157 µM) | 0.2 µg/mL (≈ 0.628 µM) | 3.13 µg/mL (≈ 9.83 µM) | 12.5 µg/mL (≈ 39.3 µM) | 0.1 µg/mL (≈ 0.314 µM) | 0.39 µg/mL (≈ 1.23 µM) | 0.2 µg/mL (≈ 0.628 µM) | Concentration in serum [12]: 17200 ng/mL; concentration at 2 h [13]: 3230 ng/mL; ED50 [14]: 11.7 mg/kg; concentration at 1 h [15]: 7070 ng/mL; concentration at 4 h [16]: 1650 ng/mL; concentration at 0.5 h [17]: 10700 ng/mL
5 | CCn1cc(C(=O)O)c(=O)c2cc(F)c(N3CCNCC3)c(F)c21 |  |  |  |  |  |  |  |  | LD50 [18]: 193 mg/kg; LD50 [19]: 1070 mg/kg
6 | CCn1cc(C(=O)O)c(=O)c2cc(F)c(-n3cnc(Br)c3)c(F)c21 |  | 0.2 µg/mL (≈ 0.502 µM) |  | 1.56 µg/mL (≈ 3.92 µM) | 25 µg/mL (≈ 62.8 µM) | 0.2 µg/mL (≈ 0.502 µM) | 0.78 µg/mL (≈ 1.96 µM) |  | MIC [9]: 6.25 µg/mL (≈ 15.7 µM); MIC [10]: 0.2 µg/mL (≈ 0.502 µM); MIC [11]: 0.2 µg/mL (≈ 0.502 µM)
7 | CCn1cc(C(=O)O)c(=O)c2cc(F)c(-n3ccnc3C)c(F)c21 | 25 µg/mL (≈ 75 µM) | 0.78 µg/mL (≈ 2.34 µM) | 0.39 µg/mL (≈ 1.17 µM) | 3.13 µg/mL (≈ 9.39 µM) | 25 µg/mL (≈ 75 µM) | 0.2 µg/mL (≈ 0.6 µM) | 6.25 µg/mL (≈ 18.8 µM) | 0.39 µg/mL (≈ 1.17 µM) | 
8 | CCn1cc(C(=O)O)c(=O)c2cc(F)c(-n3cccc3)cc21 [IRLOXACIN] | 1.56 µg/mL (≈ 5.19 µM) | 0.05 µg/mL (≈ 0.167 µM) | 0.1 µg/mL (≈ 0.333 µM) | 3.13 µg/mL (≈ 10.4 µM) | 12.5 µg/mL (≈ 41.6 µM) | 0.1 µg/mL (≈ 0.333 µM) | 0.39 µg/mL (≈ 1.3 µM) | 0.2 µg/mL (≈ 0.666 µM) | Concentration in serum [12]: 6800 ng/mL; concentration at 2 h [13]: 840 ng/mL; ED50 [20]: 50 mg/kg; concentration at 1 h [15]: 2200 ng/mL; concentration at 4 h [16]: 550 ng/mL; concentration at 0.5 h [17]: 5530 ng/mL
9 | CCn1cc(C(=O)O)c(=O)c2cc(F)c(N3CCNCC3)cc21 [NORFLOXACIN] |  |  |  |  |  |  |  |  | LD50 [21]: 4000 mg/kg; Concentration in serum [12]: 2000 ng/mL; ED50 [22]: 6.7 mg/kg; LD50 [18]: 327 mg/kg; concentration at 2 h [13]: 400 ng/mL; concentration at 1 h [15]: 690 ng/mL; concentration at 4 h [16]: 360 ng/mL; concentration at 0.5 h [17]: 1050 ng/mL
10 | CCn1cc(C(=O)O)c(=O)c2cc(F)c(-n3cnc4ccccc43)c(F)c21 | 1.56 µg/mL (≈ 4.22 µM) | 0.05 µg/mL (≈ 0.135 µM) | 0.78 µg/mL (≈ 2.11 µM) | 1.56 µg/mL (≈ 4.22 µM) | 12.5 µg/mL (≈ 33.8 µM) | 0.78 µg/mL (≈ 2.11 µM) | 0.2 µg/mL (≈ 0.542 µM) | 0.39 µg/mL (≈ 1.06 µM) | 
11 | CCn1cc(C(=O)O)c(=O)c2cc(F)c(-n3ccnc3)c(OC)c21 | 1.56 µg/mL (≈ 4.71 µM) | 0.1 µg/mL (≈ 0.302 µM) | 0.1 µg/mL (≈ 0.302 µM) | 1.56 µg/mL (≈ 4.71 µM) | 25 µg/mL (≈ 75.5 µM) | 0.1 µg/mL (≈ 0.302 µM) | 0.39 µg/mL (≈ 1.18 µM) | 0.1 µg/mL (≈ 0.302 µM) | 
